Measurements from patent US20050112551A1, “Dual assay for evaluating activity and cytotoxicity of compounds in the same population of cells” (AGOURON PHARMACEUTICALS, INC., priority 2003, published 2005).
Where two headings read alike, the source gives them in different places.

Experiments:
[1] = test system: VSV/HIVLuc infection of HeLa HRLuc cells
[2] = test system: HIV-1 RF infection of CEM-SS cells; assay: HIV-1 RF cell protection assay (XTT dye reduction), antiviral activity; format: cell-based; conditions: for HIV-1 RF Cell Protection Assay TI (therapeutic index, CC50/EC50): CC50 divided by EC50, cell protection assay; for EC50: read-out: HIV-1 RF Cell Protection Assay EC50
[3] = test system: VSV/HIVLuc infection of HeLa HRLuc cells; assay: microbe, parasite or virus in culture; conditions: Vesicular stomatitis virus, 72 h, read-out: Dual Reporter Assay EC50
in vitro = conditions: human
[4] = HIV-1 RF cell protection assay (XTT dye reduction), cytotoxicity in uninfected cells; format: cell-based; conditions: human
Experimental: (§1) The antiviral activities of compounds were also evaluated in cell protection assays by the XTT dye reduction method. CEM-SS subject cells were infected with HIV-1 RF virus at an moi of 0.025 to 0.819 or mock infected with medium only and added at 2×10^4 cells per well into 96-well plates containing half-log dilutions of test compounds. Six days later, 50 μl of XTT (1 mg/ml XTT tetrazolium, […] phenazine methosulfate) was added to the wells and the plate was reincubated for four hours. Viability, as determined by the amount of XTT formazan produced, was quantified spectrophotometrically by absorbance at 450 nm.
(§2) Data from cell protection assays were expressed as the percent of formazan produced in compound-treated cells compared to formazan produced in wells of uninfected, compound-free cells.

HeLa HRLuc cells = conditions: read-out: Dual Reporter Assay CC50; Renilla luciferase reporter in infected HeLa HRLuc cells, ~72 hours; mean of 2 to 3 experiments
CEM-SS cells = assay: HIV-1 RF cell protection assay (XTT dye reduction), cytotoxicity in uninfected cells; format: cell-based; conditions: XTT dye reduction, uninfected CEM-SS cells, six days; mean of 2 to 3 experiments
Experimental: as §1, §2

[5] = Human immunodeficiency virus 1, 144 h, XTT dye reduction six days after infection of CEM-SS cells with HIV-1 RF, mean of 2 to 3 experiments
[6] = XTT dye reduction, uninfected CEM-SS cells, six days, mean of 2 to 3 experiments, read-out: HIV-1 RF Cell Protection Assay CC50
[7] = uninfected (mock-infected) CEM-SS cells, XTT dye reduction, uninfected CEM-SS cells, six days, mean of 2 to 3 experiments, read-out: HIV-1 RF Cell Protection Assay CC50

SMILES	Dual Reporter Assay TI (therapeutic index, CC50/EC50) [1]	HIV-1 RF Cell Protection Assay TI (therapeutic index, CC50/EC50) [2]	EC50 [2, 5]	EC50 [3]	CC50 (in vitro)	CC50 at 6 days [4, 6]	CC50 at 6 days [4, 7]	CC50 (HeLa HRLuc cells)	EC50 ([1]; read-out: Dual Reporter Assay EC50)	EC50 ([2]; XTT dye reduction six days after infection of CEM-SS cells with HIV-1 RF, mean of 2 to 3 experiments)	CC50 (CEM-SS cells)	EC50 ([2]; Human immunodeficiency virus 1, CEM-SS, 144 h)	CC50 at 6 days [4]
O=C1Nc2ccc(Cl)cc2[C@@](C#CC2CC2)(C(F)(F)F)O1 [EFV, efavirenz]	179,250	38,266	0.0015 µM	0.0004 µM	71.7 µM	57.4 µM	–	–	–	–	–	–	–
Cc1ccnc2c1NC(=O)c1cccnc1N2C1CC1 [NVP, Nevirapine]	>1032	>30,303	0.033 µM	0.031 µM	> 32 µM	> 1000 µM	–	–	–	–	–	–	–
CC(C)Nc1cccnc1N1CCN(C(=O)c2cc3cc(NS(C)(=O)=O)ccc3[nH]2)CC1 [DLV, delavirdine]	>5000	6,961	0.013 µM	0.02 µM	> 100 µM	90.5 µM	–	–	–	–	–	–	–
CC(C)c1nc(COC(N)=O)n(Cc2ccncc2)c1Sc1cc(Cl)cc(Cl)c1 [CPV, Capravirine]	24,266	47,214	0.0014 µM	0.0015 µM	36.4 µM	66.1 µM	–	–	–	–	–	–	–
Cc1cn([C@H]2C=C[C@@H](CO)O2)c(=O)[nH]c1=O [d4T, stavudine]	>119	>64	0.51 µM	0.27 µM	> 32 µM	> 32 µM	–	–	–	–	–	–	–
Cc1cn([C@H]2C[C@H](N=[N+]=[N-])[C@@H](CO)O2)c(=O)[nH]c1=O [AZT, 3′-Azido-3′-deoxythymidine]	>11,034	>40,000	0.008 µM	0.029 µM	> 320 µM	–	> 320 µM	–	–	–	–	–	–
O=C(O)C(=O)CC(=O)c1cccn1Cc1ccc(F)cc1 [Compound L-731988]	92.2	55.6	–	–	–	–	–	166 µM	1.8 µM	4.5 µM	250 µM	–	–
O=c1[nH]cnc2c1ncn2[C@H]1CC[C@@H](CO)O1 [ddl, didanosine]	–	–	–	0.59 µM	> 32 µM	–	> 32 µM	–	–	–	–	12.9 µM	–
Nc1ccn([C@@H]2CS[C@H](CO)O2)c(=O)n1 [Compound 3TC, lamivudine]	>229	>15,384	0.065 µM	0.14 µM	> 32 µM	–	–	–	–	–	–	–	> 1000 µM
